Laboratory results from PMC7504817, “Phenylalanine Stereoisomers of CJ-15,208 and [D-Trp]CJ-15,208 Exhibit Distinctly Different Opioid Activity Profiles” (Molecules, 2020).
Entries after “also recorded” stand apart in the source; their conditions may differ. Read-outs that look alike come from different tables or passages of the source.

What was measured:
C57BL/6J mice [1] = assay: 55 °C warm-water tail-withdrawal assay (antinociception); type: in vivo, mouse
Procedure: For intracerebroventricular (i.c.v.) administration the macrocyclic tetrapeptides were dissolved in dimethyl sulfoxide (DMSO), followed by addition of sterile saline (0.9%) so that the final vehicle was 50% DMSO and 50% saline, and the i.c.v. injections performed as described previously. This concentration of DMSO was not observed to have antinociceptive or behavioral effects in previous use. For per os (p.o.) administration the macrocyclic tetrapeptides were administered in 10% Solutol in 0.9% saline. All solutions for animal administration were prepared fresh daily.
The 55 °C warm-water tail-withdrawal assay was performed in mice as previously described, with the latency of the mouse to withdraw its tail from the water taken as the endpoint (a cut-off time of 15 sec was used in this assay). Antinociception was calculated according to the following formula: % antinociception = 100 × (test latency − control latency)/(15 − control latency). Tail-withdrawal data points are the means of 8–16 mice, unless otherwise indicated, with SEM shown by error bars.
All dose-response lines were analyzed by regression, and ED50 (effective dose producing 50% antinociception) values and 95% confidence intervals (C.I.) determined using individual data points from graded dose-response curves with Prism 8.0 software (GraphPad, La Jolla, CA, USA). Percent antinociception was used to determine within group effects and to allow comparison to baseline latency in tail-withdrawal experiments. The statistical significance of differences between ED50 values was determined by evaluation of the ED50 value shift via nonlinear regression modeling with Prism software. Significant differences in behavioral data were analyzed by ANOVA (one-way or two-way with repeated measures (RM), as appropriate). Significant results were further analyzed with Sidak’s, Tukey’s, or Dunnett’s multiple comparison post hoc tests, as appropriate. Data for conditioned place preference experiments were analyzed by two-way RM ANOVA, with analyses examining the main effect of conditioned place preference phase (e.g., pre- or post-conditioning) and the interaction of drug pretreatment. Significant effects were further analyzed using Sidak’s HSD post hoc testing. All data are presented as mean ± SEM, with significance set at p < 0.05.

DOR = target: T1, DOR (Mus musculus, UniProt P32300); assay: Antagonist activity against DOR-selective agonist SNC-80 (tail-withdrawal assay); type: in vivo; details: stereoisomer 100 nmol i.c.v. pretreatment; SNC-80 100 nmol i.c.v.
T1 construct: from tissue; host or cells: whole animal, C57BL/6J mice
T1 sequence (P32300 whole entry): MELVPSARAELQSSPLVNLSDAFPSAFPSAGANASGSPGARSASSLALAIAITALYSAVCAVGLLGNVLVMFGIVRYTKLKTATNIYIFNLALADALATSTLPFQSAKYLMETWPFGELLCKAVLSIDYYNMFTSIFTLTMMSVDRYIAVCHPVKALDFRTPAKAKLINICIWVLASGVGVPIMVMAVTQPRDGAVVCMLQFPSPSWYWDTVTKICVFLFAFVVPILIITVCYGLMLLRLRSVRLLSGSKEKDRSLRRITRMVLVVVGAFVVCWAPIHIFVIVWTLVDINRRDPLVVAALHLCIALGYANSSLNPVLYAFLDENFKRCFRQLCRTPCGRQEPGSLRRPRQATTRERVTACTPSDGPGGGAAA

rat KOR [2] = target: T2, rat KOR (Rattus norvegicus, UniProt P34975); assay: biochemical
T2 sequence (P34975 whole entry): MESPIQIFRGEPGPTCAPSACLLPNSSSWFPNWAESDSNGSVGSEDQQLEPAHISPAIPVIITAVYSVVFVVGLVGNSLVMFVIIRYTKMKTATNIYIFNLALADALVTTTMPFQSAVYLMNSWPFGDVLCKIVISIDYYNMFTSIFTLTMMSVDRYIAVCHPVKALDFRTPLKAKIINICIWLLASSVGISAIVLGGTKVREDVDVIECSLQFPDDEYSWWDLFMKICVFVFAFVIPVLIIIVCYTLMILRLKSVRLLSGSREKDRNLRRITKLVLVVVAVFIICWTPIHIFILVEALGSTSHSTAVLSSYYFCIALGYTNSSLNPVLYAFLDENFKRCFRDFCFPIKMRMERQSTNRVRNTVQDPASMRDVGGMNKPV

C57BL/6J mice [3] = assay: Acute antinociceptive tolerance (tail-withdrawal assay, dosing at 0 and 8 h); details: i.c.v.; for Fold-Shift, Naïve ED50 vs. Second ED50: 0 h vs 8 h; for ED50 (95% C.I.) Pretreated Mice: 8 h after pretreatment with ED50 dose of the same compound, * significantly different from naïve; for acute antinociceptive tolerance: ED50 at 8 h vs 0 h; for Naïve ED50 (95% C.I.): naïve C57BL/6J mice, tail-withdrawal assay
C57BL/6J mice [4] = details: mouse, in vivo
rat MOR = target: T3, rat MOR (Rattus norvegicus, UniProt P33535); assay: Radioligand equilibrium competition binding, MOR; details: [3H]DAMGO; membranes from CHO cells expressing rat MOR; mean ± SEM, at least three experiments
T3 construct: expressed in transfected cells
T3 sequence (P33535 whole entry): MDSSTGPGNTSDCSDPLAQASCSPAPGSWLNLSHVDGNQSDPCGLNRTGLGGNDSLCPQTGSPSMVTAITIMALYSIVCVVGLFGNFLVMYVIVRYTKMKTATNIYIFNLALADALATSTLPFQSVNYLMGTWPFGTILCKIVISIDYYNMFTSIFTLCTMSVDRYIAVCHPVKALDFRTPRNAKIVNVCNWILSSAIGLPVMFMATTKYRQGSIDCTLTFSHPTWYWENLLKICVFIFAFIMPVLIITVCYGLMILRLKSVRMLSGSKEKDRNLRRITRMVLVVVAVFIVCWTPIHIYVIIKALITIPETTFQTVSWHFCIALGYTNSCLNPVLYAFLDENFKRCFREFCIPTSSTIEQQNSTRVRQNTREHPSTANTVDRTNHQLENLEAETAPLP

rat KOR [5] = target: T2, rat KOR; details: ratio Ki(MOR)/Ki(KOR)
C57BL/6J mice [6] = details: mouse, in vivo; remark: listed apart in the source
C57BL/6J mice [7] = assay: Opioid receptor involvement in antinociception (antagonist pretreatment, tail-withdrawal assay); type: in vivo, mouse; details: i.c.v. (1, 3, 4, 5 at 10 nmol, 2 at 100 nmol); pretreatment with β-FNA, nor-BNI or naltrindole
C57BL/6J mice [8] = details: mouse, in vivo; remark: listed apart in the source
[9] = Metabolic stability in mouse liver microsomes; type: in vitro ADME; details: pH 7.4, 5 µM peptide, 0.25 mg/mL protein, with NADPH, 37 °C, read-out: t1/2 in mouse liver microsomes
Procedure: The macrocyclic tetrapeptide (5 µM) in 1% acetonitrile was incubated with mouse liver microsomes (0.25 mg/mL protein, Xenotech, Lenexa, KS, USA) at 37 °C in the presence or absence of co-factor NADPH RapidStart System (1 mM, Xenotech) or NADPH solution (Sigma, St. Louis, MO, USA) in potassium phosphate buffer (50 mM, pH 7.4). Aliquots (100 µL) taken at 0, 5, 15, 30, 60 and 120 min were quenched with ice-cold acetonitrile (1 vol) containing internal standard ([D-NMeAla^2]CJ-15,208 [26], 5 µM) to precipitate the proteins. The lack of endogenous interference with the analysis of the stereoisomer or internal standard was confirmed by analyzing samples lacking the macrocyclic tetrapeptide.
Following centrifugation at 10,000× g rpm for 10 min, the supernatant (50 µL) was diluted with water (75 µL), stored overnight at −20 °C and analyzed by LC-MS/MS using methodology similar to that described for [D-Trp]CJ-15,208 [32]. Liquid chromatography was performed on a Hypersil BDS C8 column (50 mm × 2.1 mm, 3 µm) with a flow rate of 0.2 mL/min and an injection volume of 20 µL using an Acquity UPLC system (Waters, Milford, MA, USA). The peptides were separated using a gradient of aqueous acetonitrile containing 0.08% formic acid of 20% B (0–2 min), 20–50% B (2–3 min), 50–80% B (3–6 min), 80% B (6–7 min), 80–20% B (7–8 min) and 20% B (8–10 min).
ESI-MS/MS was performed on a Waters Quatro triple quadrupole instrument operating in the positive ion multiple reaction monitoring mode. Data acquisition was carried out with Mass Lynx 4.1 software with the following settings: capillary voltage, 2500 V; cone voltage, 30 V; source temperature, 100 °C; desolvation temperature, 250 °C; cone gas flow, 279 L/h; desolvation gas flow, 1157 L/h; LM 1 resolution, 14; HM 1 resolution, 14; ion energy 1, 1.0; MS/MS mode entrance, -1; MS/MS collision energy, 35 eV; MS/MS mode exit, 2; LM 2 resolution, 13.0; HM 2 resolution, 13.0; ion energy 2, 1.5; multiplier, 650; collision cell pressure, 1.63 × 10^−3 mbar; collision gas, argon. The transition m/z 578.2 ([M + H]^+) → 217.2 was monitored to determine the peak area counts of the stereoisomers, and m/z 566.2 ([M + H]^+) → 232.9 was monitored to determine the peak area counts of the internal standard (collision energy 22 eV) with the following settings: dwell time, 0.3 s; delay, 0.05 s.

C57BL/6J mice [10] = details: ref [19], [20]; cited from earlier work
mouse DOR = details: radioligand binding; ref [19]; cited from earlier work
[11] = parameters: method as in Khaliq et al., manuscript in preparation; details: ref Khaliq et al., manuscript in preparation; cited from earlier work
C57BL/6J mice [12] = details: mice, ref [19], [20], cited from earlier work
C57BL/6J mice [13] = assay: Respiration and ambulation, CLAMS/Oxymax system; details: 10 mg/kg, i.p.; 60 min
C57BL/6J mice [14] = assay: Conditioned place preference / aversion assay; details: 10 mg/kg, i.p., two-day place conditioning

## O=C1N[C@H](Cc2ccccc2)C(=O)N[C@H](Cc2c[nH]c3ccccc23)C(=O)N[C@@H](Cc2ccccc2)C(=O)N2CCC[C@H]12 (single isomer, unassigned) [Stereoisomer 5, cyclo[Phe-D-Pro-D-Phe-D-Trp]]
C57BL/6J mice [1]; after i.c.v. administration
  time of peak antinociception: 30 min
C57BL/6J mice [1]; i.c.v. administration
  duration of significant antinociception: 90 min
C57BL/6J mice [1]; i.c.v., C57BL/6J mice, antinociception at peak response
  ED50 (and 95% C.I.) i.c.v.: 0.56 (0.38–0.91) nmol
C57BL/6J mice [1]; p.o.
  antinociceptive efficacy: full antinociception
C57BL/6J mice [1]; p.o. administration
  time of peak antinociception: 20 to 30 min
C57BL/6J mice [1]; p.o., C57BL/6J mice, antinociception at peak response
  ED50 (and 95% C.I.) p.o.: 4.72 (3.70–6.39) mg/kg
DOR
  antagonism of SNC-80 antinociception (DOR antagonist activity): significantly antagonized SNC-80
Rat KOR [2]
  Ki: 353 ± 19 nM
C57BL/6J mice [3]
  Fold-Shift, Naïve ED50 vs. Second ED50: 1.09 fold
  ED50 (95% C.I.) Pretreated Mice: 0.49 (0.09–1.36) nmol
  acute antinociceptive tolerance: Neither stereoisomer 4 or 5 demonstrated any significant changes in the ED50 values
  Naïve ED50 (95% C.I.): 0.45 (0.28–0.70) nmol
C57BL/6J mice [4]
  effect on coordinated locomotor performance (rotarod) vs vehicle: lacked any significant effect
Rat MOR
  Ki: 5800 ± 1450 nM
Rat KOR [5]
  Selectivity Ki (MOR) Ki (KOR): 16
C57BL/6J mice [6]
  conditioned place preference or aversion: no significant preference or aversion
C57BL/6J mice [7]
  Receptors Involved (in antinociception): all three opioid receptors contributed to the antinociception; also recorded: KOR, MOR, DOR
C57BL/6J mice [8]
  effect on respiration rate vs vehicle: significant decreases in respiration rates
[9]
  half-life at 5 µM: 15 min

## O=C1N[C@@H](Cc2ccccc2)C(=O)N2CCC[C@@H]2C(=O)N[C@@H](Cc2ccccc2)C(=O)N[C@H]1Cc1c[nH]c2ccccc12 [CJ-15,208, cyclo[Phe-D-Pro-Phe-Trp]]
C57BL/6J mice [10]
  Receptors Involved (in antinociception): KOR, MOR
Rat KOR [2]
  Ki: 27.4 ± 4.6 nM
C57BL/6J mice [3]
  Fold-Shift, Naïve ED50 vs. Second ED50: 2.87 fold
  ED50 (95% C.I.) Pretreated Mice: 5.23 (4.23–6.48) nmol
  Naïve ED50 (95% C.I.): 1.82 (1.22–2.74) nmol
Mouse DOR
  affinity for DOR: negligible affinity for DOR
Rat MOR
  Ki: 451 ± 114 nM
[11]
  half-life in mouse liver microsomes: 49 min
Rat KOR [5]
  Selectivity Ki (MOR) Ki (KOR): 16.5
C57BL/6J mice [12]; i.c.v.
  ED50 (and 95% C.I.) i.c.v.: 1.74 (0.62–4.82) nmol
C57BL/6J mice [12]; p.o.
  ED50 (and 95% C.I.) p.o.: 3.49 (1.98–5.73) mg/kg

## CN1CC[C@]23c4c5ccc(O)c4O[C@H]2[C@@H](O)C=C[C@H]3[C@H]1C5 [Morphine, morphine, reference compound]
C57BL/6J mice [3]
  Fold-Shift, Naïve ED50 vs. Second ED50: 7.63 fold
  acute antinociceptive tolerance: demonstrated acute antinociceptive tolerance
  Naïve ED50 (95% C.I.): 2.91 (2.48–3.41) nmol
C57BL/6J mice [13]
  effect on ambulation vs vehicle: robust, significant increases in ambulation
  effect on respiration rate vs vehicle: significant, time-dependent respiratory depression
C57BL/6J mice [14]
  conditioned place preference or aversion: significant place-preference for the morphine-paired chamber
